Earlier results in patent US5639734A, “Disaccharide inflammation inhibitors and uses thereof” (priority 1994, dated 1997).

Experiments:
[1] = test system: O-linked glycoprotein synthesis; details: background; cited from earlier work
[2] = test system: sialyl Lewis X (sLe^x) ligands, HL-60 cells; details: background; cited from earlier work

CC(=O)NC1C(OCc2ccccc2)OC(CO)C(O)C1O (centres unmarked) [GalNAcα-0-Bn, GalNAc-O-benzyl]
Effect on mucin oligosaccharide / O-linked glycoprotein synthesis (in words) [1]: stimulates mucin oligosaccharide synthesis and inhibits O-linked glycoprotein synthesis | Expression of sLe^x ligands and adhesion to activated endothelial cells (in words) [2]: inhibits the expression of sialyl Lewis X (sLe^x) ligands and adhesion to activated endothelial cells
